{"source": "ChEMBL document CHEMBL5252550", "about": "“DYRK1A kinase inhibition with emphasis on neurodegeneration: A comprehensive evolution story-cum-perspective” (Eur J Med Chem, 2018)", "key": {"[1]": {"target": "T1, Dual specificity tyrosine-phosphorylation-regulated kinase 1A (Homo sapiens, UniProt Q13627)", "assay": "Inhibition of DYRK1A (unknown origin)"}, "[2]": {"target": "T1, Dual specificity tyrosine-phosphorylation-regulated kinase 1A", "assay": "Binding affinity to DYRK1A (unknown origin) assessed as inhibition constant"}, "[3]": {"target": "T1, Dual specificity tyrosine-phosphorylation-regulated kinase 1A", "assay": "Inhibition of DYRK1A (unknown origin) in presence of ATP"}, "[4]": {"target": "T2, Dual specificity tyrosine-phosphorylation-regulated kinase 3 (Homo sapiens) (UniProt O43781)", "T2 sequence (whole entry)": "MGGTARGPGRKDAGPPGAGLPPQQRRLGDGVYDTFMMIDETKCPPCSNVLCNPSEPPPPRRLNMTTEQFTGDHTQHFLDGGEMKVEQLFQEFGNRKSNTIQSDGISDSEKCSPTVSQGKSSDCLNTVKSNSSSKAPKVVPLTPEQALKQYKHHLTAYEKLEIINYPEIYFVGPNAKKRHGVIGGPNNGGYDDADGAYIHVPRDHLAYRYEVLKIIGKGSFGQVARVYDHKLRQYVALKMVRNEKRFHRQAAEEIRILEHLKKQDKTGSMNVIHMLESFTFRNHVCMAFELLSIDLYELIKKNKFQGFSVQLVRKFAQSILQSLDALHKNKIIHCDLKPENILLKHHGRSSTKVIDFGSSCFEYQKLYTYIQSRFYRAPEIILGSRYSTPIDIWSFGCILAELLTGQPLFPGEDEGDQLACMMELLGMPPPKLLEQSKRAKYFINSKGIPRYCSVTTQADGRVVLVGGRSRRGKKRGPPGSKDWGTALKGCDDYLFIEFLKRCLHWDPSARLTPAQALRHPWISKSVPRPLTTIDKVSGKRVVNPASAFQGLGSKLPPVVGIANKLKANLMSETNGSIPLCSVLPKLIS", "assay": "Inhibition of DYRK3 (unknown origin) at 10 uM relative to control"}, "[5]": {"target": "T3, Dual specificity tyrosine-phosphorylation-regulated kinase 2 (Homo sapiens) (UniProt Q92630)", "T3 sequence (whole entry)": "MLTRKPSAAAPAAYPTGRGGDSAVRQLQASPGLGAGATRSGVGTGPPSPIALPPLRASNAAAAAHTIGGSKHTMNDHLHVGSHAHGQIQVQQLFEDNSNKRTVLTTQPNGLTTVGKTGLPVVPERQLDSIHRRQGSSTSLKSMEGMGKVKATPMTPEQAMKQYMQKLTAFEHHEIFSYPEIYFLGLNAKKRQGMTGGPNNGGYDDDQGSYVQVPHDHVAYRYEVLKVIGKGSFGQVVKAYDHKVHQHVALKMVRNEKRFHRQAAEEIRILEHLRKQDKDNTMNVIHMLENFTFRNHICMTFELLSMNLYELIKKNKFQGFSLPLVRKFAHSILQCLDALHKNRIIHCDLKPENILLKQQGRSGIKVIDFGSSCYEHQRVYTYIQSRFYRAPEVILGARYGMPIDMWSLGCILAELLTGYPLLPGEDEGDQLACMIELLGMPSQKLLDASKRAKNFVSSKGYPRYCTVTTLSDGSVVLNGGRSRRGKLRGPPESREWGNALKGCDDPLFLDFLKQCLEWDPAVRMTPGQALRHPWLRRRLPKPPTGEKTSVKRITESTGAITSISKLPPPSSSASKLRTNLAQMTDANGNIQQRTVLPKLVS", "assay": "Inhibition of DYRK2 (unknown origin) at 10 uM relative to control"}, "[6]": {"target": "T1, Dual specificity tyrosine-phosphorylation-regulated kinase 1A", "assay": "Inhibition of DYRK1A (unknown origin) autophosphorylation"}, "[7]": {"system": "CCN1/C(=C/C(C)=O)Sc2ccc(O)cc21", "assay": "Competitive inhibition of DYRK1A (unknown origin) assessed as michaelis-constant (Km)", "settings": "Homo sapiens"}, "Acetylcholinesterase": {"target": "Acetylcholinesterase (Homo sapiens, UniProt P22303)", "sequence (P22303 whole entry)": "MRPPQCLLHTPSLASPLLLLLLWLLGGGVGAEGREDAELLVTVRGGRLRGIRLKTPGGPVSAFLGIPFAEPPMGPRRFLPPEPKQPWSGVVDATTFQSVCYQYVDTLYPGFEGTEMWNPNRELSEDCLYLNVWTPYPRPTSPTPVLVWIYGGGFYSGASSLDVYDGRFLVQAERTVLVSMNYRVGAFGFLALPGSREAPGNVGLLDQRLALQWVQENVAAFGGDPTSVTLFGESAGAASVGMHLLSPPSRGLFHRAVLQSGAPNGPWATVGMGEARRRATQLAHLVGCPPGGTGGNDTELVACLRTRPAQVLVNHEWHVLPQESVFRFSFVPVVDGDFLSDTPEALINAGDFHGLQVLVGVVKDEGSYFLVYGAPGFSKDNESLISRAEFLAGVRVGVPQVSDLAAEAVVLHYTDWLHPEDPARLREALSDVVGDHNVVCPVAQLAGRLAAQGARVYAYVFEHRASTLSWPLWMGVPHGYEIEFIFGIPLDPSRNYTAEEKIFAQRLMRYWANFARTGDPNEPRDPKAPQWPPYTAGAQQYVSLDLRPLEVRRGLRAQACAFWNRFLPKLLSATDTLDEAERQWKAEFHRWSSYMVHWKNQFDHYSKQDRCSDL", "assay": "Inhibition of AChE (unknown origin)"}, "[8]": {"target": "T4, Dual specificity tyrosine-phosphorylation-regulated kinase 2 (Homo sapiens, UniProt Q92630)", "T4 sequence (Q92630 whole entry)": "T3 sequence (whole entry)", "assay": "Inhibition of DYRK2 (unknown origin)"}, "[9]": {"target": "Dual specificity tyrosine-phosphorylation-regulated kinase 1B (Homo sapiens, UniProt Q9Y463)", "sequence (Q9Y463 whole entry)": "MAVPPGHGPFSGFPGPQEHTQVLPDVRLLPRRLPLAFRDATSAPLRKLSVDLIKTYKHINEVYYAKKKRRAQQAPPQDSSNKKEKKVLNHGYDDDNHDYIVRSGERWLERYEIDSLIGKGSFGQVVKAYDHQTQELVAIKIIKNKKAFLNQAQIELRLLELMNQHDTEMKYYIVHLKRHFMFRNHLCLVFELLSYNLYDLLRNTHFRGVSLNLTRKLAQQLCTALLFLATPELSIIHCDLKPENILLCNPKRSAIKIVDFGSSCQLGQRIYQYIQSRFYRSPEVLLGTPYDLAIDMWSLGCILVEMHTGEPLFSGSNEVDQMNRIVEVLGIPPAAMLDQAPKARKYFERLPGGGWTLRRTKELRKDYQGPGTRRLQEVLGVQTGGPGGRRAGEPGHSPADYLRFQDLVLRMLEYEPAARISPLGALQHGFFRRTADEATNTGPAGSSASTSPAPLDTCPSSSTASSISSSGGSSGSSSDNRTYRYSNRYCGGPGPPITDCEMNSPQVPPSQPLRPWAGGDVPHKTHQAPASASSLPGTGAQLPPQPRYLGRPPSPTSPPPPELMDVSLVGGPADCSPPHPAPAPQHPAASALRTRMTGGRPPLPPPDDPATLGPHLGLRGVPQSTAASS", "assay": "Inhibition of DYRK1B (unknown origin)"}}}
{"compound": "CCC(=O)O[C@@H](C/C=C(\\C)C(=O)OC)[C@H](C(=O)OC)[C@@H](OC(C)=O)[C@@H](C[C@H](C)[C@H](OC(=O)CC(C)C)[C@@H]1C[C@H](C)C[C@]2(C[C@H](C)C[C@](CC(C)=O)(OC(C)=O)O2)O1)OC(=O)CC(C)C", "values": [{"measurement": "IC50", "setting": "[1]", "value": "> 10", "unit": "µM"}]}
{"compound": "O=C1c2ccc(O)c(O)c2C(=O)c2c(O)ccc(O)c21", "note": "[QUINALIZARIN]", "values": [{"measurement": "Ki", "setting": "[2]", "value": 5.85, "unit": "µM"}]}
{"compound": "Cc1cc(=O)oc2cc3c([N+](=O)[O-])c(O)ccc3cc12", "values": [{"measurement": "IC50", "setting": "[3]", "value": 15, "unit": "µM"}]}
{"compound": "CCN1/C(=C/C(C)=O)Sc2ccc(O)cc21", "values": [{"measurement": "inhibition", "setting": "[4]", "value": "> 90", "unit": "%"}, {"measurement": "inhibition", "setting": "[5]", "value": "> 90", "unit": "%"}]}
{"compound": "COc1cccc(NC(=O)Nc2nnc(-c3ccncc3)s2)c1", "values": [{"measurement": "IC50", "setting": "[6]", "value": 2.5, "unit": "µM"}]}
{"compound": "CCOc1cc(/C=C2\\SC(=S)NC2=O)ccc1OC", "values": [{"measurement": "IC50", "setting": "[1]", "value": 0.0602, "unit": "µM"}]}
{"compound": "N=C1NC(=O)/C(=C/c2ccc3c(c2)CCO3)S1", "values": [{"measurement": "IC50", "setting": "[1]", "value": 0.0079, "unit": "µM"}]}
{"compound": "CCC(=O)O[C@@H](C/C=C(\\C)C(=O)OC)[C@H](C(=O)OC)[C@@H](OC(C)=O)[C@@H](C[C@H](C)[C@H](OC(=O)CC(C)C)[C@@H]1C[C@H](C)C[C@]2(C[C@H](C)C[C@@](O)(CC(C)=O)O2)O1)OC(=O)CC(C)C", "values": [{"measurement": "IC50", "setting": "[1]", "value": "> 10", "unit": "µM"}]}
{"compound": "Dual specificity tyrosine-phosphorylation-regulated kinase 1A (Homo sapiens) (from UniProt Q13627)", "values": [{"measurement": "Km", "setting": "[7]", "value": 37, "unit": "µM"}]}
{"compound": "CO[C@H]1[C@H](O)[C@@H](O)[C@H](n2c3c(Cl)cccc3c3c4c(c5c6cccc(Cl)c6[nH]c5c32)C(=O)NC4=O)O[C@@H]1CO", "note": "[REBECCAMYCIN]", "values": [{"measurement": "IC50", "setting": "[1]", "value": 0.019, "unit": "µM"}]}
{"compound": "COc1ccc2c(c1)[nH]c1c(C)nccc12", "note": "[HARMINE]", "values": [{"measurement": "IC50", "setting": "Acetylcholinesterase", "value": 11.3, "unit": "µM"}, {"measurement": "IC50", "setting": "[8]", "value": 1.9, "unit": "µM"}]}
{"compound": "COC(=N)c1nc2ccc3ncnc(Nc4ccc(Br)cc4F)c3c2s1", "values": [{"measurement": "IC50", "setting": "[9]", "value": 0.22, "unit": "µM"}]}
{"compound": "COc1cc(/C=C2\\C(=O)NN(c3ccc(Cl)c(Cl)c3)C2=O)ccc1O", "values": [{"measurement": "IC50", "setting": "[6]", "value": 50, "unit": "µM"}]}
{"compound": "CN1CCc2cc3c(c4c2C1Cc1ccccc1-4)OCO3", "note": "(stereo not drawn) [ROEMERINE]", "values": [{"measurement": "IC50", "setting": "[1]", "value": 15, "unit": "µM"}]}
{"compound": "Cc1cc(=O)oc2cc3cc(O)ccc3cc12", "values": [{"measurement": "IC50", "setting": "[3]", "value": 0.6, "unit": "µM"}]}
{"compound": "COC(=N)c1nc2ccc3ncnc(Nc4ccc(Cl)cc4Cl)c3c2s1", "values": [{"measurement": "IC50", "setting": "[9]", "value": 0.28, "unit": "µM"}]}
